Reference: patent US10093630B2, “Pyrazole compounds and methods of making and using same” (ABIDE THERAPEUTICS, INC., priority 2014, dated 2018)

Columns and labels:
Test in all cases: In vitro competitive activity-based protein profiling (gel-based, FP-Rh or HT-01 probe)
Assay type in all cases: biochemical
MAGL = molecular target: T1, MAGL (Mus musculus, UniProt O35678); conditions: for inhibition at 1 µM: 1 μM inhibitor; for inhibition at 10 µM: 10 μM inhibitor; for IC50: mouse brain membrane fraction or cell lysates, 30 min preincubation at 37° C., read-out: Mouse (IC50 value, nM) MAGL
T1 construct: Proteomes (mouse brain membrane fraction or cell lysates); from tissue; host or cells: mouse brain membrane fraction (or cell lysates, not specified)
T1 sequence (O35678 1-303): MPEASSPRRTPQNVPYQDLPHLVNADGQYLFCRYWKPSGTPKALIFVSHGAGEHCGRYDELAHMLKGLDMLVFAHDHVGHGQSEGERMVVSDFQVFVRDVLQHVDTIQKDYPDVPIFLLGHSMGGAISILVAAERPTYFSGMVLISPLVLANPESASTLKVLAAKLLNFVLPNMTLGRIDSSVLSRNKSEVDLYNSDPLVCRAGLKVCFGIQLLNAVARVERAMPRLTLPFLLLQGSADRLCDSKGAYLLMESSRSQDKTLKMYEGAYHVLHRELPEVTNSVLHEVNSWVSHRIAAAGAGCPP
Outline: (§1)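 Read-out: fluorescent band intensity on SDS-PAGE gels, reporting remaining serine hydrolase activity. Before that, proteome (mouse brain membranes or cell lysates, 1.0 mg/mL) saw a range of inhibitor concentrations for 30 min at 37° C, followed by 30 min probe labelling (FP-Rh or HT-01).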

PLA2G7 = molecular target: T2, PLA2G7 (Mus musculus, UniProt Q60963); conditions: for inhibition at 1 µM: 1 μM inhibitor, read-out: % Inhibition at 1 μM, D = PLA2G7; for inhibition at 10 µM: 10 μM inhibitor, read-out: % Inhibition at 10 μM, D = PLA2G7; for IC50: mouse brain membrane fraction or cell lysates, 30 min preincubation at 37° C.
T2 construct: Proteomes (mouse brain membrane fraction or cell lysates); from tissue; host or cells: mouse brain membrane fraction (or cell lysates, not specified)
T2 sequence (Q60963 22-440): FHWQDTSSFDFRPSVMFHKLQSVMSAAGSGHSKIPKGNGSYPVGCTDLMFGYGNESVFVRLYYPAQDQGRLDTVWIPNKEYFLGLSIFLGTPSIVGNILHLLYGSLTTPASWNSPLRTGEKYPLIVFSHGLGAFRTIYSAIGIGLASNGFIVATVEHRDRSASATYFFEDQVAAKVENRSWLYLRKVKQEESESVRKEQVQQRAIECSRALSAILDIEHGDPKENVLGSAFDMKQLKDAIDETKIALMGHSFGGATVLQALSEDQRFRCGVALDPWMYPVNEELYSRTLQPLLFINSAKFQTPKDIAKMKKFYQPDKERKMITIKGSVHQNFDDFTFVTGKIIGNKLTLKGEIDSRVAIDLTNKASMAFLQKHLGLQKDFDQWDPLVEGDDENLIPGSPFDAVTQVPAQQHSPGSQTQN
Outline: as §1

ABHD6 = molecular target: T3, ABHD6 (Mus musculus, UniProt Q8R2Y0); conditions: for inhibition at 1 µM: 1 μM inhibitor, read-out: % Inhibition at 1 μM, C = ABHD6; for inhibition at 10 µM: 10 μM inhibitor, read-out: % Inhibition at 10 μM, C = ABHD6; for IC50: mouse brain membrane fraction or cell lysates, 30 min preincubation at 37° C., read-out: Mouse (IC50 value, nM) ABHD6
T3 construct: Proteomes (mouse brain membrane fraction or cell lysates); from tissue; host or cells: mouse brain membrane fraction (or cell lysates, not specified)
T3 sequence (Q8R2Y0 1-336): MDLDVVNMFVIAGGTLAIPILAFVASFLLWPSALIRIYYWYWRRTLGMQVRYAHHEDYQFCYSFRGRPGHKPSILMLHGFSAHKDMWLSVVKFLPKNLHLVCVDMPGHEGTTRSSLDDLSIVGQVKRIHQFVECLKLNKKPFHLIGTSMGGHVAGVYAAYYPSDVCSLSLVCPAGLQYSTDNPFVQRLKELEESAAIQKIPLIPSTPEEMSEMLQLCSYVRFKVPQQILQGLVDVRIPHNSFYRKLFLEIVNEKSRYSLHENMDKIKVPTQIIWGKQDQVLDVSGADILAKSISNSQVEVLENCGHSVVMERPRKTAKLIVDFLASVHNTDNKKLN
Outline: as §1

FAAH = molecular target: T4, FAAH (Mus musculus, UniProt O08914); conditions: for inhibition at 1 µM: 1 μM inhibitor, read-out: % Inhibition at 1 μM, B = FAAH; for inhibition at 10 µM: 10 μM inhibitor, read-out: % Inhibition at 10 μM, B = FAAH; for IC50: mouse brain membrane fraction or cell lysates, 30 min preincubation at 37° C., read-out: Mouse (IC50 value, nM) FAAH
T4 construct: Proteomes (mouse brain membrane fraction or cell lysates); from tissue; host or cells: mouse brain membrane fraction (or cell lysates, not specified)
T4 sequence (O08914 1-579): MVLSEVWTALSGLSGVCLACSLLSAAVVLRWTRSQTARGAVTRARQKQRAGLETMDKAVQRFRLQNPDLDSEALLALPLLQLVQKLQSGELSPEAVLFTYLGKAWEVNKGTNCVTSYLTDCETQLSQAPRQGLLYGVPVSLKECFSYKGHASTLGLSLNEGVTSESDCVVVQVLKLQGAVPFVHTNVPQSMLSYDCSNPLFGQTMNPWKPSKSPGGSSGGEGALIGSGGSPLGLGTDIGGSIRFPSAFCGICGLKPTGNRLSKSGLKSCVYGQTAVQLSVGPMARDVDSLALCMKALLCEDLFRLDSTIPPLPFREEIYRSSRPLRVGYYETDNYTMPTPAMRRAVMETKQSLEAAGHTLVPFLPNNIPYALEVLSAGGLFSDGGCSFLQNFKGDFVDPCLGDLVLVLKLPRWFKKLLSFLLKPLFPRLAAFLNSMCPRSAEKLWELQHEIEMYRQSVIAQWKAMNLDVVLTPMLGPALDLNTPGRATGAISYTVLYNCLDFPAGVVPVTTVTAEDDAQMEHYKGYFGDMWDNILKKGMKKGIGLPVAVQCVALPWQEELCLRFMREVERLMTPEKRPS
Outline: as §1

COc1ccc(N2CCN(C(=O)n3cc(C(F)(F)F)cn3)CC2)cc1 [Example 235, (4-(4-Methoxyphenyl)piperazin-1-yl)(4-(trifluoromethyl)-1H-pyrazol-1-yl)methanone]
inhibition at 1 µM (MAGL): > 75%
inhibition at 10 µM (MAGL): > 75%
IC50 (MAGL): < 100 nM
inhibition at 1 µM (PLA2G7): > 75%
inhibition at 10 µM (PLA2G7): > 75%
IC50 (PLA2G7): < 100 nM
inhibition at 1 µM (ABHD6): > 75%
inhibition at 10 µM (ABHD6): > 75%
IC50 (ABHD6): < 100 nM
inhibition at 1 µM (FAAH): > 75%
inhibition at 10 µM (FAAH): > 75%
IC50 (FAAH): < 100 nM

O=C(N1CCN(c2ccccc2N2CCOCC2)CC1)n1cc(C(F)(F)F)cn1 [Example 236, (4-(2-Morpholinophenyl)piperazin-1-yl)(4-(trifluoromethyl)-1H-pyrazol-1-yl)methanone]
inhibition at 1 µM (MAGL): > 75%
inhibition at 10 µM (MAGL): > 75%
inhibition at 1 µM (PLA2G7): > 75%
inhibition at 10 µM (PLA2G7): > 75%
inhibition at 1 µM (ABHD6): > 75%
inhibition at 10 µM (ABHD6): > 75%
inhibition at 1 µM (FAAH): 25 to 75%
inhibition at 10 µM (FAAH): > 75%

O=C(N1CCN(c2cccc(N3CCOCC3)c2)CC1)n1cc(C(F)(F)F)cn1 [Example 237, (4-(3-Morpholinophenyl)piperazin-1-yl)(4-(trifluoromethyl)-1H-pyrazol-1-yl)methanone]
inhibition at 1 µM (MAGL): > 75%
inhibition at 10 µM (MAGL): > 75%
inhibition at 1 µM (PLA2G7): > 75%
inhibition at 10 µM (PLA2G7): > 75%
inhibition at 1 µM (ABHD6): > 75%
inhibition at 10 µM (ABHD6): > 75%
inhibition at 1 µM (FAAH): > 75%
inhibition at 10 µM (FAAH): > 75%

O=C(N1CCN(c2ccc(N3CCOCC3)cc2)CC1)n1cc(C(F)(F)F)cn1 [Example 238, (4-(4-Morpholinophenyl)piperazin-1-yl)(4-(trifluoromethyl)-1H-pyrazol-1-yl)methanone]
inhibition at 1 µM (MAGL): > 75%
inhibition at 10 µM (MAGL): > 75%
inhibition at 1 µM (PLA2G7): > 75%
inhibition at 10 µM (PLA2G7): > 75%
inhibition at 1 µM (ABHD6): > 75%
inhibition at 10 µM (ABHD6): > 75%
inhibition at 1 µM (FAAH): > 75%
inhibition at 10 µM (FAAH): > 75%

O=C(N1CCN(c2ccccc2N2CCCC2)CC1)n1cc(C(F)(F)F)cn1 [Example 239, (4-(2-(Pyrrolidin-1-yl)phenyl)piperazin-1-yl)(4-(trifluoromethyl)-1H-pyrazol-1-yl)methanone]
inhibition at 1 µM (MAGL): > 75%
inhibition at 10 µM (MAGL): > 75%
inhibition at 1 µM (PLA2G7): > 75%
inhibition at 10 µM (PLA2G7): > 75%
inhibition at 1 µM (ABHD6): > 75%
inhibition at 10 µM (ABHD6): > 75%
inhibition at 1 µM (FAAH): > 75%
inhibition at 10 µM (FAAH): > 75%

O=C(N1CCN(c2cccc(N3CCCC3)c2)CC1)n1cc(C(F)(F)F)cn1 [Example 240, (4-(3-(Pyrrolidin-1-yl)phenyl)piperazin-1-yl)(4-(trifluoromethyl)-1H-pyrazol-1-yl)methanone]
inhibition at 1 µM (MAGL): > 75%
inhibition at 10 µM (MAGL): > 75%
inhibition at 1 µM (PLA2G7): > 75%
inhibition at 10 µM (PLA2G7): > 75%
inhibition at 1 µM (ABHD6): > 75%
inhibition at 10 µM (ABHD6): > 75%
inhibition at 1 µM (FAAH): > 75%
inhibition at 10 µM (FAAH): > 75%

O=C(N1CCN(c2ccc(N3CCCC3)cc2)CC1)n1cc(C(F)(F)F)cn1 [Example 241, (4-(4-(Pyrrolidin-1-yl)phenyl)piperazin-1-yl)(4-(trifluoromethyl)-1H-pyrazol-1-yl)methanone]
inhibition at 1 µM (MAGL): > 75%
inhibition at 10 µM (MAGL): > 75%
IC50 (MAGL): < 100 nM
inhibition at 1 µM (PLA2G7): > 75%
inhibition at 10 µM (PLA2G7): > 75%
IC50 (PLA2G7): < 100 nM
inhibition at 1 µM (ABHD6): > 75%
inhibition at 10 µM (ABHD6): > 75%
IC50 (ABHD6): < 100 nM
inhibition at 1 µM (FAAH): > 75%
inhibition at 10 µM (FAAH): > 75%
IC50 (FAAH): < 100 nM
